# Reference: patent publication US8575193B2, “N-substituted tetrahydroisoquinoline/isoindoline hydroxamic acid compounds” (4SC AG, priority 2008, dated 2013)
# Where a name gives a salt, the structure may show the parent alone.
# Biological target: T1, rHDAC6 (Homo sapiens, UniProt Q9UBN7)
# T1 construct: FLAG; made in house
# T1 sequence (Q9UBN7 1-1215): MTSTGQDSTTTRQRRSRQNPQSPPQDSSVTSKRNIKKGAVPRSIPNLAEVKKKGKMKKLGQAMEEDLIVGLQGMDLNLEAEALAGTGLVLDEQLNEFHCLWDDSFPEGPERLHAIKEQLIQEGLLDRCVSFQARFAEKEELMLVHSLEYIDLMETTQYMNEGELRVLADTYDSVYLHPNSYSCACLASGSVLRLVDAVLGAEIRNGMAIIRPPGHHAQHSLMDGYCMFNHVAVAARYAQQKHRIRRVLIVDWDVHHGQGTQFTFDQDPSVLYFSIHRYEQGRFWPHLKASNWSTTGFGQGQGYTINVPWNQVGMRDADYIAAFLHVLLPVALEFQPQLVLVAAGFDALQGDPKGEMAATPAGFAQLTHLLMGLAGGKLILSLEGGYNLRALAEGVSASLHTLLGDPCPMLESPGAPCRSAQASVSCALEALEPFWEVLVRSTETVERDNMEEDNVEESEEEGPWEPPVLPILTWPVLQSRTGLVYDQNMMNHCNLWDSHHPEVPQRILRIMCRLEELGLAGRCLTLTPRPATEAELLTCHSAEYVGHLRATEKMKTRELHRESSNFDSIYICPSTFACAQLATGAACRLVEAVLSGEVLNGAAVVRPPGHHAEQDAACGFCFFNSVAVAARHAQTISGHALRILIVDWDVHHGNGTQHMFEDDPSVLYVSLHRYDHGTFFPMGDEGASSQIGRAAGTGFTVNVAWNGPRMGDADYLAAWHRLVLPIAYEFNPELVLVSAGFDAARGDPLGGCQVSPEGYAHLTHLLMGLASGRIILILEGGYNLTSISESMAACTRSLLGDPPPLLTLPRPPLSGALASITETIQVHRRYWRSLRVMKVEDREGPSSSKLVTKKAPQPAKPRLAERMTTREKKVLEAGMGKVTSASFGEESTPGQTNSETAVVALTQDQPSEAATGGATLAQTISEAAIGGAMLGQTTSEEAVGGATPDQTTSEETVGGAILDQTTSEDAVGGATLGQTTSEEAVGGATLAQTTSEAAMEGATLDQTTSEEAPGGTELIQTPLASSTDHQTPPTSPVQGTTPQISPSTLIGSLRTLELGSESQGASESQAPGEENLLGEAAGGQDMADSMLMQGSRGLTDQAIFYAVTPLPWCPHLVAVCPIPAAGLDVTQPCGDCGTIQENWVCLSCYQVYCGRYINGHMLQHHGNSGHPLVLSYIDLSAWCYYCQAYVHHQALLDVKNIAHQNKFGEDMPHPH
# Test: rHDAC6 enzymatic assay (recombinant FLAG-HDAC6)
# Assay type: biochemical
# Settings: FLAG-HDAC6 from HEK293; 10 μM Ac-NH-GGK(Ac)-AMC, 3 h at 30° C.; read-out: rHDAC6 [pIC50] (converted)
# From the text: Human HDAC1 and HDAC6 fused with the FLAG epitope are stably expressed in HEK293 cells while human HDAC3 and HDAC8 fused with the FLAG epitope are overexpressed in baculo-virus infected insect (Sf21) cells. To ensure stability of FLAG-HDAC3 the SMRT protein is co-expressed in the corresponding insect cells. […] FLAG-HDAC3 and FLAG-HDAC8 are also purified by M2-agarose affinity chromatography after mass cultivation of the insect cells and cell lysis.
# The HDAC enzyme activity assay is done as described by Wegener et al. (Chem. & Biol. 10, 61-68, 2003). Briefly 40 μl of a 1:100 dilution (=0.4 μl) nuclear HeLa extract (mixture of class I and II HDACs), 29 μl enzyme buffer (15 mM Tris HCl pH 8.1, 0.25 mM EDTA, 250 mM NaCl, 10% v:v glycerol) and 1 μl test compound are added to a well of a 96 well microtiter plate and reaction started by addition of 3 μl substrate (Ac-NH-GGK(Ac)-AMC; final concentration 25 μM and final volume […]). […] After incubation at room temperature for further 40 min, fluorescence is measured using a Wallac Victor 1420 multilabel counter (Ex 355 nm, Em 460 nm) for quantification of AMC (7-amino-4-methylcoumarin) generated by trypsine cleavage of the deacetylated peptide. […] The corresponding pIC50 values of the compounds for HDAC inhibitory activity are determined from the concentration-effect curves by means of non-linear regression (Graphpad Prism software).
# The HDAC1, HDAC3 and HDAC6 enzymatic assays are done with slight modifications with recombinant FLAG-HDAC1 and FLAG-HDAC6 proteins isolated from HEK293 cell lysates or recombinant FLAG-HDAC3 isolated from insect cells, respectively. The HDAC8 enzymatic assay using recombinant FLAG-HDAC8 isolated from insect cells is done with a different substrate. About 4.5 ng/well FLAG-HDAC1 and 3.1 ng/well FLAG-HDAC6 (dependent on batches and specific activity) are incubated with 6 μM or 10 μM Ac-NH-GGK(Ac)-AMC substrate, respectively, for 3 h at 30° C. About 1.7 ng/well FLAG-HDAC3 is incubated with 6 μM Ac-NH-GGK(Ac)-AMC substrate for 2 h at 30° C., while approximately 130 ng/well FLAG-HDAC8 is incubated with 50 μM Ac-RHK(Ac)K(Ac)-AMC substrate for 3 h at 30° C. Termination of the reaction and all further steps are done as described for HeLa cell nuclear extracts as a source for HDAC enzymatic activity. The corresponding pIC50 values of the compounds for HDAC1, HDAC3, HDAC6 and HDAC8 inhibitory activity are determined from the concentration-effect curves by means of non-linear regression.
row,Structure (SMILES),IC50 [nM]
1,"CN(C)CCCC(=O)N1CCc2cc(C(=O)NO)ccc2C1 [Example 9, 2-[4-(Dimethylamino)butanoyl]-N-hydroxy-1,2,3,4-tetrahydroisoquinoline-6-carboxamide hydrochloride]",100 to 1000
2,"O=C(NO)c1ccc2c(c1)CCN(C(=O)C1CCOC1)C2 (stereo not shown) [Example 13, N-Hydroxy-2-(tetrahydrofuran-3-ylcarbonyl)-1,2,3,4-tetrahydroisoquinoline-6-carboxamide]",100 to 1000
3,"O=C(NO)c1ccc2c(c1)CCN(C(=O)C1CCC1)C2 [Example 3, 2-(Cyclobutylcarbonyl)-N-hydroxy-1,2,3,4-tetrahydroisoquinoline-6-carboxamide]",1 to 100
4,"CC#CC(=O)N1CCc2ccc(C(=O)NO)cc2C1 [Example 17, 2-But-2-ynoyl-N-hydroxy-1,2,3,4-tetrahydroisoquinoline-7-carboxamide]",1 to 100
5,"Cc1ccc(C(=O)N2CCc3ccc(C(=O)NO)cc3C2)cc1 [Example 23, N-Hydroxy-2-(4-methylbenzoyl)-1,2,3,4-tetrahydroisoquinoline-7-carboxamide]",1 to 100
6,"O=C(NO)c1ccc2c(c1)CN(C(=O)C1CCOC1)CC2 (stereo not shown) [Example 20, N-Hydroxy-2-(tetrahydrofuran-3-ylcarbonyl)-1,2,3,4-tetrahydroisoquinoline-7-carboxamide]",100 to 1000
7,"O=C(NO)c1ccc2c(c1)CCN(C(=O)C1CC1)C2 [Example 16, N-Hydroxy-2-(cyclopropylcarbonyl)-1,2,3,4-tetrahydroisoquinoline-6-carboxamide]",1 to 100
8,"COc1ccc2[nH]c(C(=O)N3CCc4ccc(C(=O)NO)cc4C3)cc2c1 [Example 24, N-Hydroxy-2-[(5-methoxy-1H-indol-2-yl)carbonyl]-1,2,3,4-tetrahydroisoquinoline-7-carboxamide]",1 to 100
9,"O=C(NO)c1ccc2c(c1)CCN(C(=O)Cc1c[nH]c3ccccc13)C2 [Example 1, N-Hydroxy-2-(indol-3-ylacetyl)-1,2,3,4-tetrahydroisoquinoline-6-carboxamide hydrochloride]",1 to 100
10,"CNC(=O)N1CCc2cc(C(=O)NO)ccc2C1 [Example 4, N6-Hydroxy-N2-methyl-3,4-dihydroisoquinoline-2,6(1H)-dicarboxamide]",1 to 100
11,"COc1ccc2[nH]c(C(=O)N3CCc4cc(C(=O)NO)ccc4C3)cc2c1 [Example 15, N-Hydroxy-2-[(5-methoxy-1H-indol-2-yl)carbonyl]-1,2,3,4-tetrahydroisoquinoline-6-carboxamide]",1 to 100
12,"COCCOCC(=O)N1CCc2cc(C(=O)NO)ccc2C1 [Example 11, N-Hydroxy-2-[(2-methoxyethoxy)acetyl]-1,2,3,4-tetrahydroisoquinoline-6-carboxamide]",100 to 1000
13,"O=C(NO)c1ccc2c(c1)CCN(C(=O)Cc1cccnc1)C2 [Example 8, N-Hydroxy-2-(pyridin-3-ylacetyl)-1,2,3,4-tetrahydroisoquinoline-6-carboxamide hydrochloride]",100 to 1000
14,"Cc1nccn1CC(=O)N1CCc2cc(C(=O)NO)ccc2C1 [Example 10, N-Hydroxy-2-[(2-methyl-1H-imidazol-1-yl)acetyl]-1,2,3,4-tetrahydroisoquinoline-6-carboxamide hydrochloride]",100 to 1000
15,"O=C(NO)c1ccc2c(c1)CN(C(=O)Cc1ccccn1)CC2 [Example 21, N-Hydroxy-2-(pyridin-2-ylacetyl)-1,2,3,4-tetrahydroisoquinoline-7-carboxamide hydrochloride]",1 to 100
16,"O=C(NO)c1ccc2c(c1)CN(C(=O)NCCc1ccccc1)CC2 [Example 22, N7-Hydroxy-N2-(2-phenylethyl)-3,4-dihydroisoquinoline-2,7(1H)-dicarboxamide]",1 to 100
17,"COCCCNC(=O)N1CCc2cc(C(=O)NO)ccc2C1 [Example 5, N6-Hydroxy-N2-(3-methoxypropyl)-3,4-dihydroisoquinoline-2,6(1H)-dicarboxamide]",1 to 100
18,"COCCCOC(=O)N1CCc2cc(C(=O)NO)ccc2C1 [Example 6, 3-Methoxypropyl-6-(hydroxycarbamoyl)-3,4-dihydroisoquinoline-2(1H)-carboxylate]",100 to 1000
19,"O=C(NO)c1ccc2c(c1)CN(C(=O)Cc1cccnc1)CC2 [Example 19, N-Hydroxy-2-(pyridin-3-ylacetyl)-1,2,3,4-tetrahydroisoquinoline-7-carboxamide hydrochloride]",1 to 100
20,"CC(=O)N1CCc2cc(C(=O)NO)ccc2C1 [Example 12, 2-Acetyl-N-hydroxy-1,2,3,4-tetrahydroisoquinoline-6-carboxamide]",100 to 1000
21,"O=C(NO)c1ccc2c(c1)CCN(C(=O)CCc1cccnc1)C2 [Example 7, N-Hydroxy-2-(3-pyridin-3-ylpropanoyl)-1,2,3,4-tetrahydroisoquinoline-6-carboxamide hydrochloride]",1 to 100
22,"O=C(NO)c1ccc2c(c1)CN(C(=O)Cc1c[nH]c3ccccc13)CC2 [Example 18, N-Hydroxy-2-(1H-indol-3-ylacetyl)-1,2,3,4-tetrahydroisoquinoline-7-carboxamide]",1 to 100
